Measured values: ChEMBL document CHEMBL1240404, “Rapamycin protects mice from staphylococcal enterotoxin B-induced toxic shock and blocks cytokine release in vitro and in vivo” (Antimicrob Agents Chemother, 2010)
Activity calls are given as the source filed them. The calls are words filed in the database; no cut-off is given here.

What was measured:
Mus musculus [1] = experiment: Protection against SEB-induced toxicity in C3H/HeJ mouse assessed as lethality at 1.2 mg/kg, in administered at 5 hrs after SEB challenge followed by 5 mg/kg, ip infusion after 24 to 96 hrs of SEB exposure; format: functional
PBMC [2] = experiment: cells; format: functional; conditions: Homo sapiens, 48 h
PBMC [3] = experiment: cells; format: functional; conditions: Homo sapiens, 48 h; remark: listed apart in the source
PBMC [4] = experiment: Inhibition of SEB-induced proliferation of human PBMC at 6.9 ug/ml after 3 hrs by [3H]thymidine incorporation assay; format: functional
Mus musculus [5] = experiment: Protection against SEB-induced toxicity in C3H/HeJ mouse assessed as survival rate at 0.7 mg/kg, in administered at 2 hrs after SEB challenge followed by 1.6 mg/kg, ip infusion after 24 to 96 hrs of SEB exposure; format: functional
[6] = Drug level in C3H/HeJ mouse blood at 0.7 mg/kg, in after 1 hr; format: ADME, organism-based; parameters: dose 0.7 mg/kg; conditions: inhaled or intranasal, read-out: Drug uptake
Mus musculus [7] = experiment: Antiinflammatory activity in C3H/HeJ mouse assessed as reduction in SEB-induced increase in serum IL-6 level at 0.7 mg/kg, in after 75 hrs; format: functional, organism-based; parameters: dose 0.7 mg/kg
Mus musculus [8] = experiment: Protection against SEB-induced toxicity in C3H/HeJ mouse assessed as appearance of ruffled fur and lethargy at 0.7 mg/kg, in administered at 72 hrs after SEB challenge followed by 1.6 mg/kg, ip infusion after 30 to 96 hrs of SEB exposure; format: functional, organism-based
PBMC [9] = experiment: Inhibition of SEB-induced proliferation of human PBMC at 6.9 ug/ml after 48 hrs by [3H]thymidine incorporation assay; format: functional
[10] = Drug level in C3H/HeJ mouse blood at 0.03 mg/kg, in administered at 2 and 5 hrs followed by 0.08 mg/kg, ip infusion at 30, 48, 72 and 96 hrs measured at 97 hrs; format: ADME, organism-based; conditions: read-out: Drug uptake
Mus musculus [11] = experiment: Protection against SEB-induced toxicity in C3H/HeJ mouse assessed as survival rate at 0.7 mg/kg, in administered at 5 hrs after SEB challenge followed by 1.6 mg/kg, ip infusion after 24 to 96 hrs of SEB exposure; format: functional
PBMC [12] = experiment: cells; format: functional; conditions: Homo sapiens, 48 h; remark: listed apart in the source
Mus musculus [13] = experiment: Antiinflammatory activity in C3H/HeJ mouse assessed as reduction in SEB-induced increase in serum IL-6 level at 0.7 mg/kg, in after 24 hrs; format: functional, organism-based; parameters: dose 0.7 mg/kg
PBMC [14] = experiment: cells; format: functional; conditions: Homo sapiens, 48 h; remark: listed apart in the source
PBMC [15] = experiment: cells; format: functional; conditions: Homo sapiens, 48 h; remark: listed apart in the source
Mus musculus [16] = experiment: Antiinflammatory activity in C3H/HeJ mouse assessed as reduction in SEB-induced increase in serum IL-6 level at 0.7 mg/kg, in after 51 hrs; format: functional, organism-based; parameters: dose 0.7 mg/kg
Mus musculus [17] = experiment: Protection against SEB-induced toxicity in C3H/HeJ mouse assessed as attenuation of hypothermic response at 0.7 mg/kg, in administered at 5 hrs after SEB challenge; format: functional, organism-based; parameters: dose 0.7 mg/kg
Mus musculus [18] = experiment: Antiinflammatory activity in C3H/HeJ mouse assessed as reduction in SEB-induced increase in serum IL-6 level at 0.7 mg/kg, in after 5 hrs; format: functional, organism-based; parameters: dose 0.7 mg/kg
Mus musculus [19] = experiment: Inhibition of SEB-induced weight loss in C3H/HeJ mouse assessed as weight gain at 0.7 mg/kg, in administered at 24 hrs after SEB challenge followed by 1.6 mg/kg, ip infusion after 30 to 96 hrs of SEB exposure; format: functional, organism-based
[20] = Drug level in C3H/HeJ mouse blood at 0.7 mg/kg, in administered at 2 and 5 hrs followed by 1.6 mg/kg, ip infusion at 30, 48, 72 and 96 hrs measured at 97 hrs; format: ADME, organism-based; conditions: read-out: Drug uptake
PBMC [21] = experiment: Cytotoxicity against human PBMC at 10 ug/ml after 48 hrs by [3H]thymidine incorporation assay; format: cell-based
Mus musculus [22] = experiment: Protection against SEB-induced toxicity in C3H/HeJ mouse assessed as survival rate at 1.2 mg/kg, in administered at 2 hrs after SEB challenge followed by 5 mg/kg, ip infusion after 24 to 96 hrs of SEB exposure; format: functional
Mus musculus [23] = experiment: Protection against SEB-induced toxicity in C3H/HeJ mouse assessed as survival rate at 0.7 mg/kg, in administered at 3 hrs after SEB challenge followed by 1.6 mg/kg, ip infusion after 24 to 96 hrs of SEB exposure; format: functional
Mus musculus [24] = experiment: Protection against SEB-induced toxicity in C3H/HeJ mouse assessed as survival rate at 1.2 mg/kg, in administered at 5 hrs after SEB challenge followed by 5 mg/kg, ip infusion after 24 to 96 hrs of SEB exposure; format: functional
Mus musculus [25] = experiment: Protection against SEB-induced toxicity in C3H/HeJ mouse assessed as attenuation of hypothermic response at 0.7 mg/kg, in administered at 42 hrs after SEB challenge followed by 1.6 mg/kg, ip infusion after 30 to 96 hrs of SEB exposure; format: functional
Mus musculus [26] = experiment: Inhibition of SEB-induced weight loss in C3H/HeJ mouse assessed as weight gain at 0.7 mg/kg, in measured after 150 hrs of SEB challenge; format: functional
PBMC [27] = experiment: Inhibition of SEB-induced proliferation of human PBMC at 0.69 ug/ml after 48 hrs by [3H]thymidine incorporation assay; format: functional
Mus musculus [28] = experiment: Protection against SEB-induced toxicity in C3H/HeJ mouse assessed as survival rate at 0.7 mg/kg, in administered at 4 hrs after SEB challenge followed by 1.6 mg/kg, ip infusion after 24 to 96 hrs of SEB exposure; format: functional
PBMC [29] = experiment: cells; format: functional; conditions: Homo sapiens, 48 h; remark: listed apart in the source
Mus musculus [30] = experiment: Protection against SEB-induced toxicity in C3H/HeJ mouse assessed as attenuation of hypothermic response at 0.7 mg/kg, in administered at 24 hrs after SEB challenge followed by 1.6 mg/kg, ip infusion after 30 to 96 hrs of SEB exposure; format: functional, organism-based
PBMC [31] = experiment: cells; format: functional; conditions: Homo sapiens, 48 h; remark: listed apart in the source
PBMC [32] = experiment: Inhibition of SEB-induced proliferation of human PBMC after 48 hrs by [3H]thymidine incorporation assay; format: functional, cell-based

C[C@@H]1C[C@H]2[C@@H]3CCC4=CC(=O)C=C[C@]4(C)[C@@]3(F)[C@@H](O)C[C@]2(C)[C@@]1(O)C(=O)CO [DEXAMETHASONE]
Activity (Mus musculus [1]): 90%

CO[C@H]1C[C@@H]2CC[C@@H](C)[C@@](O)(O2)C(=O)C(=O)N2CCCC[C@H]2C(=O)O[C@H]([C@H](C)C[C@@H]2CC[C@@H](O)[C@H](OC)C2)CC(=O)[C@H](C)/C=C(\C)[C@@H](O)[C@@H](OC)C(=O)[C@H](C)C[C@H](C)/C=C/C=C/C=C/1C [SIROLIMUS]
inhibition at 6.9 µg/mL (PBMC [2]): 100%
inhibition at 6.9 µg/mL (PBMC [3]): 100%
inhibition at 6.9 µg/mL (PBMC [4]): 40%
Activity (Mus musculus [5]): 100%
concentration at 1 h [6]: 492 ng/mL
inhibition (Mus musculus [7]): Active
Activity (Mus musculus [8]): Active
inhibition at 6.9 µg/mL (PBMC [9]): 94%
concentration at 97 h [10]: 38 ng/mL
Activity (Mus musculus [11]): 100%
inhibition at 6.9 µg/mL (PBMC [12]): 77%
inhibition (Mus musculus [13]): Active
inhibition at 0.0069 µg/mL (PBMC [14]): 36%
inhibition at 6.9 µg/mL (PBMC [15]): 97%
inhibition (Mus musculus [16]): Active
Activity (Mus musculus [17]): Active
inhibition (Mus musculus [18]): inactive
inhibition (Mus musculus [19]): Active
concentration at 97 h [20]: 622 ng/mL
Activity (PBMC [21]): Non-toxic
Activity (Mus musculus [22]): 100%
Activity (Mus musculus [23]): 100%
Activity (Mus musculus [24]): 10%
Activity (Mus musculus [25]): 20%
inhibition in vivo at 0.7 mg/kg (Mus musculus [26]): 8%
inhibition at 0.69 µg/mL (PBMC [27]): 56%
Activity (Mus musculus [28]): 100%
inhibition at 0.0069 µg/mL (PBMC [29]): 34%
Activity (Mus musculus [30]): Active
inhibition at 6.9 µg/mL (PBMC [31]): 67%
inhibition (PBMC [32]): Dose-dependent effect
